Reference: ChEMBL document CHEMBL1201862, “PubChem BioAssay data set” (2004)
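Step 1: Grow cells in 96-well plates. Step 2: Expose to compound for 48 hours at 5 concentrations. Step 3: Interpolate endpoints linearly; if unreached, use highest concentration. GI50: concentration for 50% inhibition of growth.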 The source made the active and inactive calls. Cut-off read from the data, not from the text of the source: active = GI50 up to about 1.1 µM and inactive = higher.

Assays:
Assay in all cases: inhibition of tumour cell growth, NCI panel, 48 h
OVCAR-8 = tested on: OVCAR-8
HCT-15 = tested on: HCT-15
T47D = tested on: T47D
M14 = tested on: M14
NCI-H23 = tested on: NCI-H23
SN12C = tested on: SN12C
SK-MEL-5 = tested on: SK-MEL-5
U-251 = tested on: U-251
OVCAR-3 = tested on: OVCAR-3
TK-10 = tested on: TK-10
Hs-578T = tested on: Hs-578T
ACHN = tested on: ACHN
CAKI-1 = tested on: CAKI-1
A498 = tested on: A498
BT-549 = tested on: BT-549
SF-295 = tested on: SF-295
EKVX = tested on: EKVX
Malme-3M = tested on: Malme-3M
UACC-257 = tested on: UACC-257
SW-620 = tested on: SW-620
SNB-75 = tested on: SNB-75
UACC-62 = tested on: UACC-62
NCI-H460 = tested on: NCI-H460
SF-539 = tested on: SF-539
SK-MEL-2 = tested on: SK-MEL-2
MDA-MB-435 = tested on: MDA-MB-435
COLO 205 = tested on: COLO 205
MDA-MB-231 = tested on: MDA-MB-231
HT-29 = tested on: HT-29
RPMI-8226 = tested on: RPMI-8226
KM12 = tested on: KM12
MDA-N = tested on: MDA-N
SK-OV-3 = tested on: SK-OV-3
HCT-116 = tested on: HCT-116
DU-145 = tested on: DU-145
IGROV-1 = tested on: IGROV-1
786-0 = tested on: 786-0
PC-3 = tested on: PC-3
HOP-62 = tested on: HOP-62
SF-268 = tested on: SF-268
NCI-H226 = tested on: NCI-H226
LOX IMVI = tested on: LOX IMVI
NCI-H522 = tested on: NCI-H522
OVCAR-5 = tested on: OVCAR-5
K562 = tested on: K562
A549 = tested on: A549
MCF7 = tested on: MCF7
MOLT-4 = tested on: MOLT-4
UO-31 = tested on: UO-31
SNB-19 = tested on: SNB-19
NCI/ADR-RES = tested on: NCI/ADR-RES
SK-MEL-28 = tested on: SK-MEL-28
HCC 2998 = tested on: HCC 2998
SR = tested on: SR
OVCAR-4 = tested on: OVCAR-4

Measured: GI50

CC1Cc2c(Br)nc(N)nc2NC1=O (stereo not given)
> 100 µM: HCT-15
inactive: OVCAR-8 > 100 µM | T47D > 100 µM | M14 > 100 µM | NCI-H23 > 100 µM | SN12C > 100 µM | SK-MEL-5 > 100 µM | U-251 > 100 µM | OVCAR-3 > 100 µM | TK-10 > 100 µM | Hs-578T > 100 µM | ACHN > 100 µM | CAKI-1 > 100 µM | A498 > 100 µM | BT-549 > 100 µM | SF-295 > 100 µM | EKVX > 100 µM | Malme-3M > 100 µM | UACC-257 > 100 µM | SW-620 > 100 µM | SNB-75 > 100 µM | UACC-62 > 100 µM | NCI-H460 > 100 µM | SF-539 > 100 µM | SK-MEL-2 > 100 µM | MDA-MB-435 > 100 µM | COLO 205 > 100 µM | MDA-MB-231 > 100 µM | HT-29 > 100 µM | RPMI-8226 > 100 µM | KM12 > 100 µM | MDA-N > 100 µM | SK-OV-3 > 100 µM | HCT-116 > 100 µM | DU-145 > 100 µM | IGROV-1 > 100 µM | 786-0 > 100 µM | PC-3 > 100 µM | HOP-62 > 100 µM | SF-268 > 100 µM | NCI-H226 > 100 µM | LOX IMVI > 100 µM | NCI-H522 > 100 µM | OVCAR-5 > 100 µM | K562 > 100 µM | A549 > 100 µM | MCF7 > 100 µM | MOLT-4 > 100 µM | UO-31 > 100 µM | SNB-19 > 100 µM | NCI/ADR-RES > 100 µM | SK-MEL-28 > 100 µM | HCC 2998 > 100 µM | SR 86.3 µM | OVCAR-4 > 100 µM
